Measured values from patent EP0649467B1, “SELF-STABILIZED OLIGONUCLEOTIDES AS THERAPEUTIC AGENTS” (HYBRIDON, Inc., priority 1992, dated 1994).
Where two headings read alike, the source gives them in different places.

Columns and labels:
[1] = tested on: H9 lymphocytes; experiment: Cytotoxicity by trypan blue dye exclusion; assay type: cell-based; parameters: dose or concentration left out as unconfirmed
From the text: Cytotoxicity of oligonucleotides was studied by culturing the cells with increasing concentration of oligonucleotide and by the trypan blue dye exclusion method.

[2] = tested on: HIV-1; experiment: Anti-HIV activity: p24 expression by ELISA in HIV-1 infected H9 lymphocytes; assay type: cell-based; parameters: Inhibition of p24 (%): dose or concentration left out as unconfirmed; details: for Inhibition of p24 (%): three days; for IC50: Human immunodeficiency virus 1, Lymphocyte, p24 expression, positive control
Protocol: H9 lymphocytes were infected with HIV-1 virions (≡0.01 - 0.1 TCID50/cell) for one hour at 37°C. After one hour, unadsorbed virions were washed and the infected cells were divided among wells of 24 well plates. To the infected cells, an appropriate concentration (from stock solution) of oligonucleotide was added to obtain the required concentration in 2 ml medium. In a positive control experiment ddC or AZT was added. The cells were then cultured for three days. At the end of three days, supernatant from the infected culture was collected and measured for p24 expression by ELISA. The level of expression of p24 was compared between oligonucleotide treated and untreated (no drug) infected cells.

[3] = Experiment 1, concentration 0.04
[4] = Experiment 1, concentration 0.08
[5] = Experiment 1, concentration 0.2
[6] = Experiment 1, concentration .0016
[7] = Experiment 2, concentration 0.0016
[8] = Experiment 2, concentration 0.008
[9] = Experiment 2, concentration 0.04
[10] = Experiment 2, concentration 0.2

## Cc1cn([C@H]2C[C@H](N=[N+]=[N-])[C@@H](CO)O2)c(=O)[nH]c1=O [AZT]
[1]; [3]
  % Cell Survival: 98%
[1]; [4]
  % Cell Survival: 104%
[1]; [5]
  % Cell Survival: 95%
[1]; [6]
  % Cell Survival: 108%
[1]; [7]
  % Cell Survival: 103%
[1]; [8]
  % Cell Survival: 101%
[1]; [9]
  % Cell Survival: 98%
[1]; [10]
  % Cell Survival: 93%
[2]; [3]
  Inhibition of p24 (%): 73%
[2]; [4]
  Inhibition of p24 (%): 44%
[2]; [5]
  Inhibition of p24 (%): 90%
[2]; [6]
  Inhibition of p24 (%): 6%
[2]; [7]
  Inhibition of p24 (%): 6%
[2]; [8]
  Inhibition of p24 (%): 5%
[2]; [9]
  Inhibition of p24 (%): 65%
[2]; [10]
  Inhibition of p24 (%): 89%
[2]; Experiment 1, read-out: IC50
  IC50: 0.037 µM
[2]; Experiment 2
  IC50: 0.1 µM
